Test results: patent US20110014226A1, “HIGH […] I[…]” (priority 2008, published 2011)

How the values were obtained:
[1] = test system: D5 binding to 5-helix; experiment: D5 Competitive Binding Assay (DCBA) high throughput screen with F19 counter-screen; set-up: species or system HIV-1; details: among the compounds listed in Table 2; DCBA primary screen vs F19 counter-screen
Excerpt: An in vitro binding assay was developed using D5 IgG conjugated to europium cryptate (Eu-D5) and a biotinylated gp41 mimetic molecule that presents the hydrophobic pocket in a stabilized structural context (termed 5-helix (or 5H) peptide). The assay readout is based on a fluorescence resonance energy transfer (FRET) format. Biotin-5-helix binds to a streptavidin-conjugated allophycocyanin (APC) substrate to form a 5H-SA-APC complex. When Eu-D5 binds to the hydrophobic pocket of biotin-5H, it brings the Eu into close proximity with the APC substrate to allow FRET from Eu to APC. When the reaction system is excited at a wavelength of 340 nm, the Eu signals at 620 nm. If the Eu is in close proximity to the APC, it excites the APC which results in long-lived emissions at 665 nm. Introducing a time delay (e.g., ˜100 μseconds) between the system excitation and fluorescence measurement allows the FRET signals to be cleared of non-specific short-lived emissions (“time-resolved FRET”). The resulting specific FRET signal indicative of the amount of Eu-D5 bound to biotin-5H can be quantified by the ratio of fluorescence [counts at 665 nm/fluorescence counts at 620 nm]×10,000. […]
Briefly, the assay was performed in the following manner. […] The plate was then read using the Fusion Universal Microplate Analyzer (Packard Bioscience). […]

[2] = ELISA of mouse antisera after immunization with hapten-CRM197 conjugates, coated with biotinylated Compound 2.45; assay type: in vivo; details: balb/c mice, 25 μg conjugate intramuscularly three times at 2-week intervals, Merck aluminum alum + IMO-2055; reciprocal endpoint titers by ELISA
[3] = test system: ccIZN36; experiment: ELISA of mouse antisera after immunization, coated with ccIZN36; assay type: in vivo; details: balb/c mice, 25 μg conjugate intramuscularly three times at 2-week intervals, Merck aluminum alum + IMO-2055; reciprocal endpoint titers by ELISA
[4] = test system: 5-helix; details: in vivo; for Post-dose 3 geometric mean antibody titer (GMT) elicited versus 5-helix: mouse
[5] = test system: ccIZN17; experiment: ELISA of mouse antisera after immunization, coated with ccIZN17; assay type: in vivo; details: balb/c mice, 25 μg conjugate intramuscularly three times at 2-week intervals, Merck aluminum alum + IMO-2055; reciprocal endpoint titers by ELISA
[6] = test system: CRM197; details: mouse, in vivo
[7] = ELISA of mouse antisera after immunization, coated with biotinylated Compound 2.58; assay type: in vivo; details: balb/c mice, 25 μg conjugate intramuscularly three times at 2-week intervals, Merck aluminum alum + IMO-2055; reciprocal endpoint titers by ELISA

Row | Compound | specific inhibition of D5 binding relative to F19 inhibition [1] | Post-dose 3 geometric mean antibody titer (GMT) elicited versus Compound 2.45 [2] | Post-dose 3 geometric mean antibody titer (GMT) elicited versus ccIZN36 [3] | binding activity of individual mouse sera in the 5H ELISA [4] | Post-dose 3 geometric mean antibody titer (GMT) elicited versus 5-helix [4] | Post-dose 3 geometric mean antibody titer (GMT) elicited versus ccIZN17 [5] | Post-dose 3 geometric mean antibody titer (GMT) elicited versus CRM197 [6] | Post-dose 3 geometric mean antibody titer (GMT) elicited versus Compound 2.58 [7]
1 | CCNC(=O)[C@]1(Cc2ccccc2)CCCN(C(=O)[C@@H](Cc2ccc3ccccc3c2)NC(=O)N2CC(C)NC(C)C2)C1 (stereo partly drawn) [Compound 1.1] | the best in terms of specific inhibition of D5 binding relative to F19 inhibition |  |  |  |  |  |  | 
2 | CCNC(=O)[C@]1(Cc2ccccc2)CCCN(C(=O)[C@@H](Cc2ccc(Cl)c(Cl)c2)NC(=O)N[C@@H]2CCCNC2)C1 [Compound 2.58] |  | >1,600,000 | <100 | more pronounced binding activity | 200 | 200 | 400 | 713,155
3 | CCNC(=O)[C@]1(Cc2ccccc2)CCCN(C(=O)[C@@H](Cc2ccc3ccccc3c2)NC(=O)N2CCNCC2)C1 [Compound 2.45] |  | >1,600,000 | <100 | more pronounced binding activity | 400 | <100 | 1,600 | >1,600,000
